What all share (type): in vivo, human
Data set [1] has as its system allergic rhinitis due to pollinosis. The data set is described as follows: ALA-PDT with 635 nm red semiconductor laser into the entire nasal cavity after oral ALA hydrochloride, subjects with pollinosis. The conditions noted are these: 20 mg/kg oral. The method, then:
To a total 12 subjects with pollinosis, 7 adult males and 5 adult females, 20 mg/kg of ALA hydrochloride was orally administered, and 6 hours later, 100 J of red semiconductor laser light having a wavelength of 635 nm was irradiated into the nasal cavity for 6 minutes. As a result, symptoms of a severe runny nose and sneezing due to pollinosis of the 12 subjects disappeared ([…]) or abated (5 subjects), and these effects were maintained until at least 1 year after the irradiation.

The next data set concerns allergic rhinitis. The data set is described as follows: ALA-PDT with 635 nm red LED on the inflamed site after oral ALA hydrochloride, subjects with allergic rhinitis. The conditions noted are these: 3 subjects; 20 mg/kg oral; 635 nm red LED until red fluorescence no longer visible. The method, then: (§1) To 3 subject volunteers with allergic rhinitis, 20 mg/kg of ALA hydrochloride was orally administered, and violet light of 408 nm was irradiated into the nasal cavity after about 6 hours using a bronchoscope enabling fluorescence observation (SAFE-3000 from Pentax) to perform ALA-PDD. […] The light of a red LED (light emitting diode) (FIG. 2) having a wavelength of 635 nm was irradiated on the inflamed site of the nasal mucosa until the red fluorescence could not be visually observed (FIG. 3). More specifically, the red LED light having a wavelength of 635 nm was irradiated for a certain period, followed by discontinuing the PDT irradiation; a bronchoscope (SAFE-3000 from Pentax) was inserted into the nasal cavity by interchanging with the irradiation device; and after observing red light, the PDT irradiation was again performed.

Data set [2] has as its system inflamed site of the nasal mucosa. Nature of the data set: ALA-PDD: PpIX accumulation in the nasal mucosa after oral ALA hydrochloride. The conditions noted are these: 3 subject volunteers with allergic rhinitis; 20 mg/kg oral; 408 nm violet light after about 6 hours. The method, then:
as §1

Data set [3] has as its system allergic rhinitis due to pollinosis. The data set is described as follows: ALA-PDT with 635 nm red semiconductor laser after ALA hydrochloride in applied liquid form (transdermal, nasal cavity), subjects with pollinosis. As to conditions: 5% by weight in saline on cotton in the nasal cavity for 1 hour, 100 J of 635 nm laser for 6 minutes. The method, then:
Then, it was examined whether or not, even when the ALA hydrochloride was administered in an applied liquid form, it could treat allergic rhinitis. A saline solution comprising 5% by weight of ALA hydrochloride sufficiently soaked in cotton was applied to the nasal cavity of 4 adult male subjects with pollinosis, and the soaked cotton was left in place for 1 hour before being removed. 100 J of red semiconductor laser light having a wavelength of 635 nm was intranasally irradiated for 6 minutes immediately after removing the soaked cotton on 3 of the subjects and 1 hour after removing the soaked cotton on the remaining 1 subject. As a result, symptoms of a severe runny nose and sneezing due to pollinosis of the 4 subjects disappeared for the 1 subject irradiated 1 hour thereafter and abated for the 3 subjects irradiated immediately thereafter. […] In addition, the treatment by the liquid form application is shown to be more excellent treatment than that by oral administration in view of cost effectiveness and time effectiveness because the direct application of an ALA hydrochloride solution around an inflamed site of the nasal mucosa can more decrease the amount of ALA hydrochloride administered than oral administration and PpIX accumulates in a short time in the inflamed site of the nasal mucosa.

Where [4] appears, read: of 12 subjects with pollinosis, 6 hours later 100 J of 635 nm laser for 6 minutes.

Each structure is given as a SMILES string. Structures can show the parent of a compound that is named as a salt.

As to `NCC(=O)CCC(=O)O` [ALA hydrochloride, 5-aminolevulinic acid], the “time for which the effects were maintained after the irradiation” value in data set [1] (12 subjects with pollinosis, 100 J of 635 nm laser for 6 minutes) is listed as “at least 1 year”. Also, in data set [1] (setting [4]), the “subjects whose symptoms of a severe runny nose and sneezing abated” value amounted to 5 subjects; the “subjects whose symptoms of a severe runny nose and sneezing disappeared” value is 3 subjects. For the same compound, in the data set with allergic rhinitis, the “course of symptoms of runny nose and sneezing thereafter” value is “abated over several weeks”; the “symptoms of a severe runny nose and sneezing until several days after the irradiation” value is “observed in the 3 subjects”. Moreover, the “inflamed site of the nasal mucosa by which PpIX was taken up (ALA-PDD fluorescence)” value in data set [2] was “detected as red fluorescence”. The “symptoms of a severe runny nose and sneezing, irradiated 1 hour after removing the soaked cotton” value in data set [3] (1 subject) is on record as “disappeared”. Moreover, the “symptoms of a severe runny nose and sneezing, irradiated immediately after removing the soaked cotton” value in data set [3] (3 subjects) was “abated”.

Source of the values: patent US9550073B2, “Therapeutic agent for allergic rhinitis” (SBI Pharmaceuticals Co., Ltd., priority 2011, dated 2017).
